# Biological target: T1, GluK2 (Rattus norvegicus, UniProt P42260)
# T1 construct: gene Grik2; wild-type rat GluK2 expressed in HEK293T cells
# Experiment: whole-cell patch-clamp, potentiation of glutamate-evoked peak current
# Format: cell-based
# T1 sequence (P42260 32-908): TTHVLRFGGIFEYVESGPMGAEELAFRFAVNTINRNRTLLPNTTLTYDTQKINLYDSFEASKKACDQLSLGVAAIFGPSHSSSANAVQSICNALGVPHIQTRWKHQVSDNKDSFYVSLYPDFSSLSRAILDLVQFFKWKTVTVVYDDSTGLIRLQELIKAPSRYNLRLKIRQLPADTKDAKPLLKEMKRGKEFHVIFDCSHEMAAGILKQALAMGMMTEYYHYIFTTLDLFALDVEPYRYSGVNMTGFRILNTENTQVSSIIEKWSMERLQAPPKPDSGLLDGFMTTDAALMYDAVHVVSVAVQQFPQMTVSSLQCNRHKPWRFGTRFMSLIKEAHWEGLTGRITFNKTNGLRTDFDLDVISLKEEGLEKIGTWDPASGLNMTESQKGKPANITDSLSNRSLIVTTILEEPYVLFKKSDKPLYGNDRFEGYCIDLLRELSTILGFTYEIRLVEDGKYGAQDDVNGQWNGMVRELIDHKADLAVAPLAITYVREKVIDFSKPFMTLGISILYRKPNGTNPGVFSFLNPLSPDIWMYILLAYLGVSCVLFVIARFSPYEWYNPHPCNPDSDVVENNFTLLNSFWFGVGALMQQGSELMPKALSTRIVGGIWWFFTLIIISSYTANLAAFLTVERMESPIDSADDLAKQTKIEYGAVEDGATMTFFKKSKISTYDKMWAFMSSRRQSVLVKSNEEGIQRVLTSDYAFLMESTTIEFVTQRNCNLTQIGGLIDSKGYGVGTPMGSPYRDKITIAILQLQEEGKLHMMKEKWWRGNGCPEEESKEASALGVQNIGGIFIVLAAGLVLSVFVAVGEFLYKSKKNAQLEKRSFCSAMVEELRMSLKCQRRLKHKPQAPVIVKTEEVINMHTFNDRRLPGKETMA
compound,measurement,value
O=S1(=O)NCN(C2CC2)c2ccc(F)cc21 [BPAM344],"whole-cell patch-clamp, potentiation of glutamate-evoked peak current",Potentiation of the peak current amplitudes (Ipeak) of GluK2 WT (left)

# Reference: doi:10.1101/2025.03.27.645769, “Structural Insights into Kainate Receptor Desensitization” (bioRxiv, 2025)
